Reference: publication PMC4383039 (Science translational medicine, 2015)
Values after ≈ are worked out from the molar mass of the structure shown. Like-named read-outs stand apart in the source and are kept apart here. Marks after values point to notes of the source that are not given here.

Experiments:
[1] = molecular target: InhA-NADH complex (Mycobacterium tuberculosis, UniProt P9WGR1); assay: biochemical; type: binding
[2] = molecular target: T1, InhA (Mycobacterium tuberculosis, UniProt P9WGR1); assay: biochemical
[3] = tested on: mycolates; type: cell-based, Mycobacterium tuberculosis
[4] = molecular target: InhA with cofactor (NADH or NAD+) (Mycobacterium tuberculosis, UniProt P9WGR1); type: binding
[5] = molecular target: apo-InhA, InhA-NAD+ complex (Mycobacterium tuberculosis, UniProt P9WGR1); type: binding
[6] = tested on: Mtb H37Rv; assay: microbe, parasite or virus in culture; type: cell-based, Mycobacterium tuberculosis; conditions: for MIC50: Mycobacterium tuberculosis, H37RV
[7] = tested on: Mtb H37Rv; conditions: cited from earlier work
[8] = molecular target: T1, InhA; conditions: read-out: InhA IC50; cited from earlier work
[9] = tested on: in vitro replicating Mtb; type: cell-based, Mycobacterium tuberculosis
[10] = tested on: Mtb H37Rv; parameters: species or system BALB/c mice; conditions: mouse, in vivo

Sequence of InhA-NADH complex (P9WGR1 whole entry, looked up, one chain of several): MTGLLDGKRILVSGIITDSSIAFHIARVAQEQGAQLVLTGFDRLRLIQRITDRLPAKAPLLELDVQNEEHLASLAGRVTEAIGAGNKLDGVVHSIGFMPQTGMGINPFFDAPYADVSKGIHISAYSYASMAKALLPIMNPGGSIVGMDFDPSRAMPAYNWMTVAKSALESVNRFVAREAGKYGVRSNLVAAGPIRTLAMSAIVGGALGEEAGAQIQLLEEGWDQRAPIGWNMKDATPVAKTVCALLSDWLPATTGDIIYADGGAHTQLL
Sequence of InhA with cofactor (NADH or NAD+) (P9WGR1 whole entry, looked up): as the sequence (P9WGR1 whole entry, looked up, one chain of several) above
T1 sequence (P9WGR1 whole entry, looked up): as the sequence (P9WGR1 whole entry, looked up, one chain of several) above
Sequence of apo-InhA, InhA-NAD+ complex (P9WGR1 whole entry, looked up, one chain of several): as above

## CC(C)Cc1cc(O)c(-c2ccccc2)c(=O)[nH]1 [NITD-529, 4-hydroxy-6-isobutyl-3-phenylpyridin-2(1H)-one]
[1]
  ITC (+NADH) N: 0.97 ± 0.23
  Kd: 25 ± 7 µM
[1]; 25°C
  ITC (+NADH) ΔH: 13.1 ± 4.202 kcal/mol
  ITC (+NADH) ΔS: -0.0229 kcal/mol
[2]
  IC50: 9.6 ± 0.7 µM
[3]
  effect on mycolates: dose-dependent inhibition of mycolates
[4]
  Thermaflor assay Tm, E-NAD+-I: 50.3 °C
  Thermaflor assay Tm, E-NADH-I: 54.7 °C
  Thermaflor assay ΔTm: 4.4 °C
[5]
  ITC binding to InhA: no binding was observed
[6]
  Mtb MIC50: 1.54 µM
[6]; 120 h, read-out: Mtb MIC50
  MIC50: 1.5 µM (≈ 0.365 µg/mL)
[6]; read-out: Compound MIC50
  MIC50: 1.54 µM (≈ 0.375 µg/mL)

## O=[N+]([O-])c1cn2c(n1)OC[C@@H](OCc1ccc(OC(F)(F)F)cc1)C2 [PA-824]
[7]
  MIC50: 0.4 µM (≈ 0.144 µg/mL)

## c1ccc(Oc2ccccc2)cc1 [PT70]
[4]
  Thermaflor assay Tm, E-NAD+-I: 66.7 °C
  Thermaflor assay Tm, E-NADH-I: 60.1 °C
  Thermaflor assay ΔTm: -6.6 °C
[8]
  IC50: < 0.05 µM
[7]
  Mtb MIC50: 11 ^a μM

## COc1nc2ccc(Br)cc2cc1[C@@H](c1ccccc1)[C@@](O)(CCN(C)C)c1cccc2ccccc12 [bedaquiline]
[7]
  MIC50: 0.05 µM (≈ 0.0278 µg/mL)

## CCc1cc(C(N)=S)ccn1 [ethionamide]
[6]; read-out: Compound MIC50
  MIC50: 1.66 µM (≈ 0.276 µg/mL)

## NNC(=O)c1ccncc1 [isoniazid]
[9]
  concentration showing rapid killing (in vitro cidal-activity profile): 0.5 µM
[10]
  efficacy compared with reference drugs / NITD-916: significantly more potent than NITD-916
[6]; read-out: Compound MIC50
  MIC50: 0.25 µM (≈ 0.0343 µg/mL)
[7]
  MIC50: 0.33 µM (≈ 0.0453 µg/mL)

## CO[C@H]1/C=C/O[C@@]2(C)Oc3c(C)c(O)c4c(O)c(c(/C=N/N5CCN(C)CC5)c(O)c4c3C2=O)NC(=O)/C(C)=C\C=C\[C@H](C)[C@H](O)[C@@H](C)[C@@H](O)[C@@H](C)[C@H](OC(C)=O)[C@@H]1C [rifampicin]
[10]
  efficacy compared with reference drugs / NITD-916: significantly more potent than NITD-916

## [H]/N=C(/N)N[C@H]1[C@H](O)[C@@H](O)[C@H](O[C@@H]2O[C@@H](C)[C@](O)(C=O)[C@H]2O[C@@H]2O[C@@H](CO)[C@H](O)[C@@H](O)[C@@H]2NC)[C@@H](N/C(N)=N\[H])[C@@H]1O [streptomycin]
[6]; read-out: Compound MIC50
  MIC50: 0.08 µM (≈ 0.0465 µg/mL)
